# Data reported in patent publication EP2575807B1, “FORMULATION BASED ON SULPIRIDE AND A SYNERGISTIC HOMEOPATHIC COMPOSITION FOR TREATMENT OF DEPRESSIVE SYNDROME” (Novak, Maja, priority 2010, dated 2011).
# Key:
# [1] = tested on: women suffering of depressive syndrome; assay: Controlled study of antidepressant activity, Hamilton rating scale for depression (HAMD test); type: in vivo
# Description: They are divided onto two groups by randomization: • (i) A control group (N = 32) received once-a-day combined (in the same syringe) dose of 20 mg of sulpiride (1; 0.4 mL) diluted with physiological solution (2.0 mL) by subcutaneous injection during three months (90 days).
# The duration of administering was three months (90 days; also subcutaneously).
# Neurosurg. Psychiatr. […] Psychiatr.
# For the 17-item version of HAMD test, scores can range from 0 to 54. […]
# The above results were subjected to paired T-test. […] Paired T-test is usually chosen to establish the difference between groups, i.e. their mean values during the Study.
# The study was followed by the use of Hamilton rating scale for depression (HAMD test).
# [2] = cited from earlier work
compound,measurement,setting,value
"CCN1CCCC1CNC(=O)c1cc(S(N)(=O)=O)ccc1OC (racemic) [sulpiride, (R,S)-(±)-5-(aminosulfonyl)-N-[(1-ethylpyrrolidin-2-yl)methyl]-2-methoxybenzamide]",HAMD,"[1]; After the Study, once-a-day subcutaneous injection, 20 mg of sulpiride, three months (90 days)",17.34 ± 8.77
same,HAMD,"[1]; Before the Study (baseline), 17-item HAMD score, range 0 to 54",18.91 ± 9.19
same,"Mean difference (paired T-test, HAMD before vs after the Study)","[1]; once-a-day subcutaneous injection, 20 mg of sulpiride, 90 days",1.60
same,oral bioavailability,[2],25-35%
